{"source": "paper PMC7270110", "about": "“Labeled oxytocin administered via the intranasal route reaches the brain in rhesus macaques” (Nature Communications, 2020)", "assay": "Brain tissue concentration of endogenous OT (d0OT) by LC-MS/MS (terminal experiment)", "assay_type": "in vivo, rhesus macaques (Macaca mulatta)", "settings": "for BRAIN OT concentration (endogenous): LC-MS/MS; for Concentrations of endogenous brain oxytocin (OT): molarity calculated for extracellular fluid volume", "protocol": "Monkeys were divided into three groups, each with two monkeys; each group received the following in a terminal study at the 5th week: Group 1 (Monkeys ID# 1 and ID# 5) received 40 IU of d5OT IN, Group 2 received 80 IU of d5OT IN (Monkeys ID# 2 and ID# 4) and Group 3 received 80 IU of d5OT IV (Monkeys ID# 3 and ID# 6). Animals were perfused on average, 140 ± 7 (mean ± SD) min after d5OT administration (range = 135–149 min) (Table 4). Plasma and CSF were drawn just before administration of d5OT, at the midpoint between d5OT administration and perfusion (~60 min post-d5OT administration), and just before perfusion.\nBrain tissue distribution of d5OT, as well as the endogenous concentrations of OT (d0OT), were measured in the following 12 brain regions: cerebellum, brainstem, striatum, amygdala, thalamus, visual cortex, insular cortex, hypothalamus, hippocampus, mPFC (Brodmann areas 32,25,24), dPFC (Brodmann areas 46,9,10), and OFC (Brodmann areas 14,13,12) (Tables 1, 2 and 3).\nBrain tissue sample preparation: Samples (~1.5 mg per sample) were individually weighed and placed into 12 mm × 75 mm glass tubes containing 1.5 ml ice-cold 1 M acetic acid and 30 µl of OT-d10 internal standard. Tissues were homogenized on ice and the resulting homogenates were poured into individual 15 ml polystyrene tubes. The original glass tube was rinsed with 1 ml acetonitrile, and this rinse was added to the appropriate 15 ml polystyrene tube containing the homogenate. After all homogenizations were complete, 3 ml acetonitrile was added to each tube and extraction proceeded, as described for the plasma and CSF samples.\nLC–MS/MS instrument parameters: Microtiter plates were prepared, as described above, and loaded onto a SIL-30ACMP autosampler set at 4 °C (Shimadzu). Forty microliters of each standard, QC or sample were injected onto an ACE Excel 2 C18-PFP 50 mm × 2.1 mm column (Advanced Chromatography Technologies, LTD, Aberdeen, Scotland) at 50 °C using reversed-phase chromatography. Mobile phase A was 0.1% formic acid in water and mobile phase B was 0.1% formic acid in ACN. The LC time gradient was created using two Nexera LC-30AD pumps (Shimadzu) running at 0.5 ml/min. Chromatography for serum and CSF samples began at 10% B and ended at 16% B at 3.6 min. One minute at 60% B was then required to wash the column, and the pumps re-equilibrated at 10% B for an additional 1.7 min (total run time ~6 min). Outside of the 1.55–3.55 min window during which OT eluted, a divert valve sent the LC effluent to waste.\nHeated electrospray […] in positive mode, with scheduled multiple reaction monitoring (MRM) on a Shimadzu LCMS-8050, was used for detection of OT. The interface temperature was 270 °C and heat block temperature was 170 °C. Gas was supplied by a Peak Genius 1051 nitrogen and air generator (Peak Scientific, Inchinnan, UK). Nitrogen gas was used for nebulizing (1 L/min) and drying (8.2 L/min), while air was used for heating (7.8 L/min). A capillary B needle was used in the interface. Needle protrusion was set to 1.25 mm and probe distance was set to 1.0 mm; both were determined empirically. Argon (Airgas, Radnor, PA) was used for the collision-induced dissociation at 330 kPa. The MS/MS conditions for OT were optimized using the automated MRM optimization procedure in LabSolutions software (Shimadzu). We collected two MRM transitions each, for d0OT (1007.40 > 723.40 and 1007.40 > 285.30), d5OT (1012.00 > 723.40 and 1012.00 > 290.35), and d10OT (1017.70 > 723.35 and 1017.70 > 295.40); the first transition listed in each case was used for quantitation, while the second was used as a reference ion. Retention times for d0OT, d5OT, and d10OT were 3.290, 3.270, and 3.253 min, respectively.\nThe sensitivities of each assay within the method were determined by the lowest and highest concentration calibrators in the calibration curve. The lower limit of quantitation (LLOQ) for d0OT was 10 pg/ml (4 pg/col); the LLOQ for d5OT was 100 pg/ml (40 pg/col). […]"}
{"smiles": "CC[C@H](C)[C@@H]1NC(=O)[C@H](Cc2ccc(O)cc2)NC(=O)[C@@H](N)CSSC[C@@H](C(=O)N2CCC[C@H]2C(=O)N[C@@H](CC(C)C)C(=O)NCC(N)=O)NC(=O)[C@H](CC(N)=O)NC(=O)[C@H](CCC(N)=O)NC1=O", "note": "[OT, oxytocin]", "values": [{"measurement": "BRAIN OT concentration (endogenous)", "setting": "Insular Cortex, after d5OT 40 IU IN, monkey #5 (F), perfused 138 min post-dose", "result": 0.30, "unit": "pg/mg"}, {"measurement": "BRAIN OT concentration (endogenous)", "setting": "Insular Cortex, after d5OT 80 IU IN, monkey #4 (M), perfused 135 min post-dose", "result": 0.06, "unit": "pg/mg"}, {"measurement": "BRAIN OT concentration (endogenous)", "setting": "Insular Cortex, after d5OT 80 IU IV, monkey #3 (F), perfused 149 min post-dose", "result": 0.16, "unit": "pg/mg"}, {"measurement": "Concentrations of endogenous brain oxytocin (OT)", "setting": "OFC, 40 IN, monkey #1 (F)", "result": "1e-09", "unit": "M"}, {"measurement": "Concentrations of endogenous brain oxytocin (OT)", "setting": "OFC, 40 IN, monkey #5 (F)", "result": "5e-09", "unit": "M"}, {"measurement": "Concentrations of endogenous brain oxytocin (OT)", "setting": "OFC, 80 IN, monkey #2 (M)", "result": "2.2e-09", "unit": "M"}, {"measurement": "Concentrations of endogenous brain oxytocin (OT)", "setting": "OFC, 80 IN, monkey #4 (M)", "result": "9e-09", "unit": "M"}, {"measurement": "Concentrations of endogenous brain oxytocin (OT)", "setting": "OFC, 80 IV, monkey #3 (F)", "result": "2e-09", "unit": "M"}, {"measurement": "BRAIN OT concentration (endogenous)", "setting": "OFC, after d5OT 40 IU IN, monkey #1 (F), perfused 148 min post-dose", "result": 0.22, "unit": "pg/mg"}, {"measurement": "BRAIN OT concentration (endogenous)", "setting": "OFC, after d5OT 40 IU IN, monkey #5 (F), perfused 138 min post-dose", "result": 0.96, "unit": "pg/mg"}, {"measurement": "BRAIN OT concentration (endogenous)", "setting": "OFC, after d5OT 80 IU IN, monkey #2 (M), perfused 136 min post-dose", "result": 0.40, "unit": "pg/mg"}, {"measurement": "BRAIN OT concentration (endogenous)", "setting": "OFC, after d5OT 80 IU IN, monkey #4 (M), perfused 135 min post-dose", "result": 1.59, "unit": "pg/mg"}, {"measurement": "BRAIN OT concentration (endogenous)", "setting": "OFC, after d5OT 80 IU IV, monkey #3 (F), perfused 149 min post-dose", "result": 0.44, "unit": "pg/mg"}, {"measurement": "Concentrations of endogenous brain oxytocin (OT)", "setting": "Striatum, 40 IN, monkey #1 (F)", "result": "3e-09", "unit": "M"}, {"measurement": "Concentrations of endogenous brain oxytocin (OT)", "setting": "Striatum, 40 IN, monkey #5 (F)", "result": "7e-09", "unit": "M"}, {"measurement": "Concentrations of endogenous brain oxytocin (OT)", "setting": "Striatum, 80 IN, monkey #2 (M)", "result": "9e-09", "unit": "M"}, {"measurement": "Concentrations of endogenous brain oxytocin (OT)", "setting": "Striatum, 80 IN, monkey #4 (M)", "result": "9.7e-08", "unit": "M"}, {"measurement": "Concentrations of endogenous brain oxytocin (OT)", "setting": "Striatum, 80 IV, monkey #3 (F)", "result": "7.9e-08", "unit": "M"}, {"measurement": "Concentrations of endogenous brain oxytocin (OT)", "setting": "Striatum, 80 IV, monkey #6 (F)", "result": "8.6e-08", "unit": "M"}, {"measurement": "BRAIN OT concentration (endogenous)", "setting": "Striatum, after d5OT 40 IU IN, monkey #1 (F), perfused 148 min post-dose", "result": 0.63, "unit": "pg/mg"}, {"measurement": "BRAIN OT concentration (endogenous)", "setting": "Striatum, after d5OT 40 IU IN, monkey #5 (F), perfused 138 min post-dose", "result": 1.20, "unit": "pg/mg"}, {"measurement": "BRAIN OT concentration (endogenous)", "setting": "Striatum, after d5OT 80 IU IN, monkey #2 (M), perfused 136 min post-dose", "result": 1.58, "unit": "pg/mg"}, {"measurement": "BRAIN OT concentration (endogenous)", "setting": "Striatum, after d5OT 80 IU IN, monkey #4 (M), perfused 135 min post-dose", "result": 17.81, "unit": "pg/mg"}, {"measurement": "BRAIN OT concentration (endogenous)", "setting": "Striatum, after d5OT 80 IU IV, monkey #3 (F), perfused 149 min post-dose", "result": 14.45, "unit": "pg/mg"}, {"measurement": "BRAIN OT concentration (endogenous)", "setting": "Striatum, after d5OT 80 IU IV, monkey #6 (F), perfused 135 min post-dose", "result": 15.82, "unit": "pg/mg"}, {"measurement": "Concentrations of endogenous brain oxytocin (OT)", "setting": "Thalamus, 40 IN, monkey #1 (F)", "result": "2.4e-08", "unit": "M"}, {"measurement": "Concentrations of endogenous brain oxytocin (OT)", "setting": "Thalamus, 40 IN, monkey #5 (F)", "result": "4e-08", "unit": "M"}, {"measurement": "Concentrations of endogenous brain oxytocin (OT)", "setting": "Thalamus, 80 IN, monkey #2 (M)", "result": "6e-09", "unit": "M"}, {"measurement": "Concentrations of endogenous brain oxytocin (OT)", "setting": "Thalamus, 80 IN, monkey #4 (M)", "result": "1.7e-08", "unit": "M"}, {"measurement": "Concentrations of endogenous brain oxytocin (OT)", "setting": "Thalamus, 80 IV, monkey #3 (F)", "result": "2.1e-08", "unit": "M"}, {"measurement": "Concentrations of endogenous brain oxytocin (OT)", "setting": "Thalamus, 80 IV, monkey #6 (F)", "result": "1.55e-07", "unit": "M"}, {"measurement": "BRAIN OT concentration (endogenous)", "setting": "Thalamus, after d5OT 40 IU IN, monkey #1 (F), perfused 148 min post-dose", "result": 4.39, "unit": "pg/mg"}, {"measurement": "BRAIN OT concentration (endogenous)", "setting": "Thalamus, after d5OT 40 IU IN, monkey #5 (F), perfused 138 min post-dose", "result": 7.31, "unit": "pg/mg"}, {"measurement": "BRAIN OT concentration (endogenous)", "setting": "Thalamus, after d5OT 80 IU IN, monkey #2 (M), perfused 136 min post-dose", "result": 1.02, "unit": "pg/mg"}, {"measurement": "BRAIN OT concentration (endogenous)", "setting": "Thalamus, after d5OT 80 IU IN, monkey #4 (M), perfused 135 min post-dose", "result": 3.09, "unit": "pg/mg"}, {"measurement": "BRAIN OT concentration (endogenous)", "setting": "Thalamus, after d5OT 80 IU IV, monkey #3 (F), perfused 149 min post-dose", "result": 3.85, "unit": "pg/mg"}, {"measurement": "BRAIN OT concentration (endogenous)", "setting": "Thalamus, after d5OT 80 IU IV, monkey #6 (F), perfused 135 min post-dose", "result": 28.34, "unit": "pg/mg"}, {"measurement": "Concentrations of endogenous brain oxytocin (OT)", "setting": "dPFC, 40 IN, monkey #5 (F)", "result": "1e-09", "unit": "M"}, {"measurement": "Concentrations of endogenous brain oxytocin (OT)", "setting": "dPFC, 80 IN, monkey #4 (M)", "result": "1e-09", "unit": "M"}, {"measurement": "Concentrations of endogenous brain oxytocin (OT)", "setting": "dPFC, 80 IV, monkey #3 (F)", "result": "2e-09", "unit": "M"}, {"measurement": "BRAIN OT concentration (endogenous)", "setting": "dPFC, after d5OT 40 IU IN, monkey #5 (F), perfused 138 min post-dose", "result": 0.16, "unit": "pg/mg"}, {"measurement": "BRAIN OT concentration (endogenous)", "setting": "dPFC, after d5OT 80 IU IN, monkey #4 (M), perfused 135 min post-dose", "result": 0.20, "unit": "pg/mg"}, {"measurement": "BRAIN OT concentration (endogenous)", "setting": "dPFC, after d5OT 80 IU IV, monkey #3 (F), perfused 149 min post-dose", "result": 0.27, "unit": "pg/mg"}, {"measurement": "BRAIN OT concentration (endogenous)", "setting": "mPFC, after d5OT 40 IU IN, monkey #1 (F), perfused 148 min post-dose", "result": 0.86, "unit": "pg/mg"}, {"measurement": "BRAIN OT concentration (endogenous)", "setting": "mPFC, after d5OT 40 IU IN, monkey #5 (F), perfused 138 min post-dose", "result": 0.88, "unit": "pg/mg"}, {"measurement": "BRAIN OT concentration (endogenous)", "setting": "mPFC, after d5OT 80 IU IN, monkey #4 (M), perfused 135 min post-dose", "result": 0.45, "unit": "pg/mg"}]}
